Laboratory results: patent US20250049831A1, “ANTIVIRAL USE OF BISE[…], AND BISEPOXYLIGNAN COMPOSITION AND PREPARATION OF BISE[…]” (priority 2021, published 2025)

Legend:
Vero cells = test: Drug cytotoxicity assay (MTT) on Vero cells; type: cell-based, African green monkey; details: 72 h, Probit regression
Source text: Vero cells were subcultured for 1-2 d to make them into flakes, and trypsinized in the presence of clear boundaries, strong three-dimensional sense and strong refractive power, until needle-like holes appeared on the cell surfaces; after the trypsinization solution was absorbed completely, a few milliliters of culture medium were taken to blow away the cells; the cells were counted, diluted to about 5×10^7/L with a culture medium (DMEM containing 10% fetal bovine serum), and then inoculated in a 96-well culture plate; and the cells grew into a monolayer.
Cytotoxicity test: the drugs were diluted at the concentrations shown in Table 3-1 for cytotoxicity assay.

parainfluenza virus [1] = test: Effect of drug on virus-induced CPE (MTT, antiviral effective rate), parainfluenza virus in Vero cells; type: cell-based
influenza virus [2] = test: Effect of drug on virus-induced CPE (MTT, antiviral effective rate), influenza virus in Vero cells; type: cell-based
COVID-19 virus = test: In-vitro antiviral CPE test in Vero E6 cells, COVID-19 virus; type: cell-based; details: Vero E6 cells, 100 TCID50, CPE after 3-4 days; unit not given (drug concentrations 250-15.62 μg/mL); in µg/mL
parainfluenza virus [3] = test: Action links (Groups I-IV: prevention, treatment, direct inactivation), protection of cells against parainfluenza virus; type: cell-based
IL-2 = test: Serum IL-2 in mice infected with influenza virus; type: in vivo, ICR mice; details: Day 5 after influenza virus infection, gavage once a day, x ± s
Experimental: (§1) On the Day 5 after influenza virus infection, that is, Day 6 after administration, after the mice were fasted with solids for 8 h and weighed, venous blood was collected from the plexus ophthalmicus, and blood from mice in each group was preserved, subjected to serum separation, and stored in a refrigerator for later use. According to the instructions of a test kit, various detection and analysis were carried out, and IL-2 and TNF-α concentrations were calculated based on the standard detection and standard curve plotting.

parainfluenza virus [4] = type: in vivo, Kunming mice; details: 13.0 mg/kg
TNF-α = test: Serum TNF-α in mice infected with influenza virus; type: in vivo, ICR mice; details: Day 5 after influenza virus infection, gavage once a day, x ± s
Experimental: as §1

COVID-19 Delta virus [5] = test: Prophylactic administration, death protection of mice infected with COVID-19 Delta virus; details: prophylactic administration, within 5 days of Delta infection, n = 8; for Mean survival: x ± s
Experimental: hACE2 transgenic C57BL/6 mice were divided (8 mice in each group) into a normal group (NC), a virus infection group (Virus), and drug groups (a COVID-19 Delta virus low-dose (40 mg/kg) group, high-dose (80 mg/kg) group; and a positive control group (Remdesivir 50 mg/kg). Before nasal dripping infection, the drug was administered by gavage 5 days in advance, once a day. After 5 days of continuous gavage, nasal dripping infection was performed, and mice in each COVID-19 virus infection group were infected with COVID-19 Delta virus with 10′ PFU by nasal dripping, except for the normal group who were given PBS by nasal dripping.
After infection, the body weight change was recorded every day, the death of animals within 5 days of infection was recorded, and the mean survival days and mortality rate of 5 days were calculated.

COVID-19 Delta virus [6] = test: Prophylactic administration, virus titer in lung tissues of mice infected with COVID-19 Delta virus; details: prophylactic gavage 5 days before infection, Day 5 after infection, TCID50 on VERO E6 cells
MCP-1 = test: RT-qPCR of MCP-1 in lung homogenate of mice infected with COVID-19 Delta virus; details: mRNA RT-qPCR, NC = 1.00
influenza virus FM1 = test: Action links (Groups I-IV: prevention, treatment, direct inactivation), protection of cells against influenza virus; type: cell-based
IL-1β = test: RT-qPCR of IL-1β in lung homogenate of mice infected with COVID-19 Delta virus; details: mRNA RT-qPCR, NC = 1.00
influenza virus [7] = type: in vivo, Kunming mice; details: 13.0 mg/kg
[8] = drug and virus mixed and adsorbed for 2 h, then added with cells (direct inactivation)
[9] = drug solution and virus solution added at the same time (direct inactivation)
[10] = virus added first, drug added 1 h after adsorption (treatment)
[11] = virus solution added after 24 h of drug administration (prevention)
[12] = high-dose group 80 mg/kg gavage 5 days
[13] = low-dose group 40 mg/kg gavage 5 days

COc1ccc(C2OCC3C(c4ccc(OC(=O)C(C)c5ccc(CC(C)C)cc5)c(OC)c4)OCC23)cc1OC (stereo not shown) [compound 6]
Maximum non-toxic concentration (TC0) (Vero cells): 0.012 g/L | Median toxic concentration (TC50) (Vero cells): 310 µg/mL | Effective rate, ER %, Parainfluenza Virus (parainfluenza virus [1]): 93.96% | Effective rate, ER %, Influenza Virus (influenza virus [2]): 84.51% | COVID-19 virus IC50 (COVID-19 virus): 161.8

COc1ccc([C@H]2OC[C@H]3[C@@H]2CO[C@H]3c2ccc(O[C@@H]3O[C@H](CO)[C@@H](O)[C@H](O)[C@H]3O)c(OC)c2)cc1OC [compound 2]
Maximum non-toxic concentration (TC0) (Vero cells): 0.0067 g/L | Median toxic concentration (TC50) (Vero cells): 560 µg/mL | Effective rate, ER %, Parainfluenza Virus (parainfluenza virus [1]): 94.43% | Effective rate, ER %, Influenza Virus (influenza virus [2]): 85.94% | COVID-19 virus IC50 (COVID-19 virus): 63.3

COc1ccc(C2OCC3C(c4ccc(OC)c(OC)c4)OCC23)cc1O (stereo not shown) [compound 3]
Maximum non-toxic concentration (TC0) (Vero cells): 0.012 g/L | Median toxic concentration (TC50) (Vero cells): 310 µg/mL | Effective rate, ER %, Parainfluenza Virus (parainfluenza virus [1]): 91.41% | Effective rate, ER %, Influenza Virus (influenza virus [2]): 83.10% | COVID-19 virus IC50 (COVID-19 virus): 166.5

COc1cc(O)cc(C2OCC3C(c4ccc(OC5OC(CO)C(O)C(O)C5O)c(OC)c4)OCC23)c1 [Serial No. 1, (7,8,7′,8′)-7,7′-bisepoxy-5′-hydroxy-3,3′hydroxy-bismethoxylignan, 4-O-β-D-glucoside]
Protection rate (ER %), Group IV (parainfluenza virus [3]; [8]): 100.82% | Protection rate (ER %), Group III (parainfluenza virus [3]; [9]): 100.49% | Protection rate (ER %), Group II (parainfluenza virus [3]; [10]): 85.95% | Protection rate (ER %), Group I (parainfluenza virus [3]; [11]): 84.39% | IL-2 expression level (IL-2; High-dose group (26.0 mg/kg)): 259.04 ± 39.98 | IL-2 expression level (IL-2; Low-dose group (13.0 mg/kg)): 288.64 ± 25.05 | Hemagglutination titer inhibition rate (%) (parainfluenza virus [4]; Day 5): 37.46% | Hemagglutination titer (parainfluenza virus [4]; lung suspension, Day 5, […]): 21.65 ± 0.238 | TNF-a expression level (TNF-α; High-dose group (26.0 mg/kg)): 608.95 ± 34.92 | TNF-a expression level (TNF-α; Low-dose group (13.0 mg/kg)): 673.65 ± 26.44 | Death rate (COVID-19 Delta virus [5]; High dose): 12.50% | Survival rate (COVID-19 Delta virus [5]; High dose): 87.50% | Mean survival (COVID-19 Delta virus [5]; High dose): 4.88 ± 0.35 days | Death rate (COVID-19 Delta virus [5]; Low dose): 75.00% | Survival rate (COVID-19 Delta virus [5]; Low dose): 25.00% | Mean survival (COVID-19 Delta virus [5]; Low dose): 4.25 ± 0.46 days | Lung virus titer (x ± s, n = 8) (COVID-19 Delta virus [6]; high dose 80 mg/kg): 2.93 ± 0.34 | Lung virus titer (x ± s, n = 8) (COVID-19 Delta virus [6]; low dose 40 mg/kg): 3.36 ± 0.28 | Expression level of MCP-1 in lung homogenate (x ± s) (MCP-1; [12]): 3.26 ± 9.77 | Expression level of MCP-1 in lung homogenate (x ± s) (MCP-1; [13]): 6.13 ± 15.12 | Protection rate (ER %), Group IV (influenza virus FM1; [8]): 100.76% | Protection rate (ER %), Group III (influenza virus FM1; [9]): 100.52% | Protection rate (ER %), Group II (influenza virus FM1; [10]): 75.77% | Protection rate (ER %), Group I (influenza virus FM1; [11]): 75.49% | Expression level of IL-1β in lung homogenate (x ± s) (IL-1β; [12]): 4.80 ± 18.82 | Expression level of IL-1β in lung homogenate (x ± s) (IL-1β; [13]): 9.13 ± 8.66 | Hemagglutination titer inhibition rate (%) (influenza virus [7]; Day 5): 43.39% | Hemagglutination titer (influenza virus [7]; lung suspension, Day 5, titer (InX)): 20.08 ± 0.381
